Test results: patent publication US8280710B2, “Method for determining thermal stability of collagen or collagen-like peptide” (University of Medicine and Dentistry of New Jersey, priority 2005, dated 2012)
Non-standard residues stand in square brackets, D forms with d. Residues, ends and D or L forms follow the SMILES beside them. Hyp = O=C(O)[C@@H]1C[C@@H](O)CN1

Experiments:
[1] = Method for predicting global Tm of collagen peptides from amino acid sequence; conditions: observed minus predicted, peptides of Table 3
Method: The global thermal stability of homotrimeric triple helical peptides with length of at least 6 tripeptide units and, in most cases, containing 10 tripeptide units was determined as follows.
For the total number of triplets n in a given peptide, the base Tm^0(n) for (Pro-Hyp-Gly) or (Pro-Pro-Gly)n was calculated from the length dependence (Equation 1), including any effect of blocking groups;
The melting temperature value was decreased for every triplet in the sequence that was not Gly-Pro-Hyp, subtracting a value of ΔTm^GXY (Table 1). The N-terminal and C-terminal tripeptide units were excluded from the calculation due to the staggering of the chains and the disorder for the peptide ends (Bella et al. (1994) supra; Li, et al. (1993) Biochemistry 32:7377-7387; Kramer, et al. (2001) J. Mol. Biol. 301:1191-1205).
The resulting value for the peptide melting temperature was adjusted using the ΔTm^int values for interactions between neighboring tripeptides (Table 2).
The method was formulated as follows.
To extrapolate the dependence of the Tm of the host peptides on peptide length, the experimental values for (Pro-Hyp-Gly)n and (Pro-Pro-Gly)n versus n, where n is the number of tripeptide units, were fit to the exponential decay function
[formula] where Tm^0(n) is defined as the base thermal stability of the repeating polytripeptide standard, Tm^max is the maximum melting temperature, and the constant n0 represents the length of the repeating peptide with Tm=0.

[2] = for Tm^obs: peptide of Table 3, defined standard conditions
Outline: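 Host-guest peptides in Gly-Xaa1-Hyp or Gly-Pro-Xaa2 contexts were melted at 1 mg/ml in PBS, pH 7.0. The heating rate averaged 0.1° C./minute, and residue propensity was derived from the Tm values.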

[3] = Predicted Tm of guest triplets/hexapeptides by additivity of Xaa1 and Xaa2 residues (Equation 1); conditions: host-guest collagen-like peptides
Method: A complete table of the stability for all Gly-Xaa1-Xaa2 triplets was constructed using the experimental values for all frequent sequences and the predicted values for all others (Table 1; experimental values are in bold). Predicted values were calculated on the basis of additivity of residues in the Xaa1 and Xaa2 position (Persikov, et al. (2002) supra; Equation 1). Tm^GX^1^X^2=Tm^GX^1^O+Tm^GPX^2−Tm^GPO (1)
The predicted values gave good agreement (within ±3° C.) for the Gly-Ala-Ala and for 28 other guest triplets of the 41 Gly-Xaa1-Xaa2 triplets studied in host-guest collagen-like peptides. […] Observed Tm values of Gly-Xaa1-Arg sequences (Gly-Glu-Arg, Gly-Ala-Arg, Gly-Lys-Arg, Gly-Gln-Arg, and Gly-Asp-Arg) were 2.5° C. smaller on average than predicted, indicating the need for a correction factor in a Gly-Xaa1-Arg context versus a Gly-Pro-Arg context.
Interactions between adjacent Gly-Xaa1-Xaa2 tripeptides were included in the calculations. One study reported stabilities of a selection of host-guest peptides including residues in two adjacent tripeptide units, Gly-Xaa1-Xaa2-Gly-Xaa1′-Xaa2′, covering possible direct interchain or intrachain interactions between residues that are separated by ≦3 residues in sequence (Persikov, et al. (2005) supra) (FIG. 1).

Compound	ΔTm [1] [°C]	Tm^obs [2] [°C]	deviation of observed Tm from predicted Tm of guest triplet [3] [°C]	experimentally observed Tm of Gly-Xaa1-Xaa2 tripeptide unit in a triple helix ([2]; host-guest peptide, (Gly-Pro-Hyp)8 host, c=1 mg/ml in phosphate-buffered saline, pH 7.0, heating rate 0.1° C./minute) [°C]
CC(=O)NCC(=O)N[C@@H](CO)C(=O)N1C[C@H](O)C[C@H]1C(=O)NCC(=O)N[C@@H](C)C(=O)N[C@@H](CCC(N)=O)C(=O)NCC(=O)N[C@@H](CC(C)C)C(=O)N[C@@H](CCC(N)=O)C(=O)NCC(=O)N1CCC[C@H]1C(=O)N[C@@H](CCCNC(=N)N)C(=O)NCC(=O)N[C@@H](CC(C)C)C(=O)N1C[C@H](O)C[C@H]1C(=O)NCC(=O)N[C@H](C(=O)N1C[C@H](O)C[C@H]1C(=O)NCC(=O)N1CCC[C@H]1C(=O)N1C[C@H](O)C[C@H]1C(=O)NCC(=O)N1CCC[C@H]1C(=O)N1C[C@H](O)C[C@H]1C(=O)NCC(=O)N1CCC[C@H]1C(=O)N1C[C@H](O)C[C@H]1C(=O)NCC(=O)N1CCC[C@H]1C(=O)N1C[C@H](O)C[C@H]1C(=O)NCC(=O)N[C@H](C(=O)O)C(C)C)[C@@H](C)O [T2-508, Ac-GSO-GAQ-GLQ-GPR-GLO-GTO-(GPO)4-GV-OH] (Ac-GS[Hyp]GAQGLQGPRGL[Hyp]GT[Hyp]GP[Hyp]GP[Hyp]GP[Hyp]GP[Hyp]GV-OH)	3.9	25.0	–	–
CC[C@H](C)[C@H](NC(=O)CNC(=O)[C@@H]1C[C@@H](O)CN1C(=O)[C@@H]1CCCN1C(=O)CNC(=O)[C@@H]1C[C@@H](O)CN1C(=O)[C@@H]1CCCN1C(=O)CNC(=O)[C@@H]1C[C@@H](O)CN1C(=O)[C@@H]1CCCN1)C(=O)N[C@H](C(=O)NCC(=O)N[C@@H](C)C(=O)N[C@@H](CCCNC(=N)N)C(=O)NCC(=O)N[C@@H](CC(C)C)C(=O)N[C@@H](C)C(=O)NCC(=O)N1CCC[C@H]1C(=O)N1C[C@H](O)C[C@H]1C(=O)NCC(=O)N1CCC[C@H]1C(=O)N1C[C@H](O)C[C@H]1C(=O)NCC(=O)N1CCC[C@H]1C(=O)N1C[C@H](O)C[C@H]1C(=O)NCC(=O)N1CCC[C@H]1C(=O)N1C[C@H](O)C[C@H]1C(=O)NCC(=O)O)[C@@H](C)O [T3-785, PO-(GPO)2-GIT-GAR-GLA-(GPO)4-G] (H-P[Hyp]GP[Hyp]GP[Hyp]GITGARGLAGP[Hyp]GP[Hyp]GP[Hyp]GP[Hyp]G-OH)	0.9	18.0	–	–
CC[C@H](C)[C@H](NC(=O)CNC(=O)[C@@H]1C[C@@H](O)CN1C(=O)[C@H](CCCCN)NC(=O)CNC(=O)[C@@H]1C[C@@H](O)CN1C(=O)[C@H](CCC(=O)O)NC(=O)CNC(=O)[C@H](C)NC(=O)[C@H](CC(C)C)NC(=O)CNC(C)=O)C(=O)N1C[C@H](O)C[C@H]1C(=O)NCC(=O)N[C@@H](CC(C)C)C(=O)N1C[C@H](O)C[C@H]1C(=O)NCC(=O)N[C@@H](CCCNC(=N)N)C(=O)N[C@@H](C)C(=O)NCC(=O)N1CCC[C@H]1C(=O)N1C[C@H](O)C[C@H]1C(=O)NCC(=O)N1CCC[C@H]1C(=O)N1C[C@H](O)C[C@H]1C(=O)NCC(=O)N1CCC[C@H]1C(=O)N1C[C@H](O)C[C@H]1C(=O)NCC(=O)N1CCC[C@H]1C(=O)N1C[C@H](O)C[C@H]1C(=O)NCC(=O)N[C@H](C(N)=O)C(C)C [T7-2031, Ac-GLA-GEO-GKO-GIO-GLO-GRA-(GPO)4-GV-NH2] (Ac-GLAGE[Hyp]GK[Hyp]GI[Hyp]GL[Hyp]GRAGP[Hyp]GP[Hyp]GP[Hyp]GP[Hyp]GV-NH2)	2.1	25.4	–	–
GPS-GPR-GLO-GPO-GAO-GPQ-GFQ-GPO-(GEO)2-GAS-GPM [α1CB2]	3.4	12	–	–
Gly-Ala-Ala	–	–	≤ 3	32.9
